Reference: ChEMBL document CHEMBL1759966, “Design and optimisation of orally active TLR7 agonists for the treatment of hepatitis C virus infection” (Bioorg Med Chem Lett, 2011)

Key:
[1] = Lipophilicity, log D of the compound; type: physicochemical; details: octanol/water
[2] = Half life in rat cytosol; type: ADME

Row | SMILES | logD [1] | half-life [2]
1 | Nc1nc(C(F)(F)F)cc2c1[nH]c(=O)n2Cc1ccccc1 | 3.3 | 
2 | COCCCn1c(=O)[nH]c2c(N)nc(C(F)(F)F)cc21 | 1.9 | 
3 | Nc1nc(C(F)(F)F)cc2c1[nH]c(=O)n2CC1CCCOC1 (centres undefined) | 2 | 
4 | Cc1ncc(Cn2c(=O)[nH]c3c(N)nc(C(F)(F)F)cc32)cn1 | 1.6 | 
5 | Cc1ccc(Cn2c(=O)[nH]c3c(N)nc(-c4nc(C)co4)cc32)cn1 | 2.1 | > 1000 min
6 | Cc1ccc(Cn2c(=O)[nH]c3c(N)nc(-n4nccn4)cc32)cn1 | 1.6 | 
7 | Cc1ccc(Cn2c(=O)[nH]c3c(N)nc(OCC4CCN(C)CC4)cc32)cn1 | 0.2 | 
8 | COCCCOc1cc2c([nH]c(=O)n2Cc2ccc(C)nc2)c(N)n1 | 1.8 | 
9 | Cc1ccc(Cn2c(=O)[nH]c3c(N)nc(OCC4CCOC4)cc32)cn1 (centres undefined) | 1.8 | 

Second part, the compound after the results:

Row | logD [1] | half-life [2] | SMILES
10 | 2.2 | 83 min | Cc1ccc(Cn2c(=O)[nH]c3c(N)nc(C(F)(F)F)cc32)nc1
11 | 1.8 |  | Cc1cnc(Cn2c(=O)[nH]c3c(N)nc(C(F)(F)F)cc32)cn1
12 | 2.1 | > 1000 min | Cc1cc(Cn2c(=O)[nH]c3c(N)nc(C(F)(F)F)cc32)no1
13 | 2.3 | > 1000 min | Cc1nc(Cn2c(=O)[nH]c3c(N)nc(C(F)(F)F)cc32)cs1
14 | 1.7 | > 1000 min | Cc1nc(Cn2c(=O)[nH]c3c(N)nc(C(F)(F)F)cc32)co1
